Experiment [1] addresses Beta-galactosidase (Escherichia coli, UniProt Q8VNN2). The experiment in a line: Dose response counterscreen for EBI2 assay utilizing the enzyme, b-galactosidase. In kind it is functional. (In general: A counterscreen serves to expose hits that act by an unwanted route or on another target.)
Experiment [2] concerns the target T1, Probable nicotinate-nucleotide adenylyltransferase (Staphylococcus aureus (strain N315), UniProt P65502). In kind it is functional, Staphylococcus aureus subsp. aureus N315.
Experiment [3] addresses T1, Probable nicotinate-nucleotide adenylyltransferase. In kind it is functional, Staphylococcus aureus subsp. aureus N315. The conditions noted are these: read-out: IC50_Mean.
Experiment [4] addresses ADP-ribosylation factor GTPase-activating protein 1 (Rattus norvegicus, UniProt Q62848). The experiment in a line: Fluorescence polarization-based biochemical high throughput dose response screening assay to identify inhibitors of ADP-ribosylation factor GTPase activating protein 1 (ARFGAP1). In kind it is functional. (In general: Polarisation of emitted light reports the rotation of a fluorescent probe.)

For experiment [5], the system named is BJ. The experiment in a line: cytotoxicity toward BJ-TERT fibroblasts, dose response, cell-based, RAS-independent, luminescence (AID 1933). In kind it is functional. The conditions noted are these: Homo sapiens.
Experiment [6] has as its system Vero. The experiment in a line: Vero cell cytotoxicity, cytotoxicity control for flavivirus capping enzyme inhibitors (AID 588742). In kind it is functional. The conditions noted are these: Chlorocebus sabaeus.
For experiment [7], the target named is T2, Sentrin-specific protease 8 (Homo sapiens, UniProt Q96LD8).
T2 sequence (Q96LD8 whole entry): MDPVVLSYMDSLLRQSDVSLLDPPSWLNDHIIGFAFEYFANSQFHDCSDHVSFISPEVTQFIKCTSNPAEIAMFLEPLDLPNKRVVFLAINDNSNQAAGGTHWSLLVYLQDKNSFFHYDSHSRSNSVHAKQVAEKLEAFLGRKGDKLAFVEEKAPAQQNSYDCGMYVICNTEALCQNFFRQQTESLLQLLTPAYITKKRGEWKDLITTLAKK
In kind it is functional.

Experiment [8] has as its system BJ. The experiment in a line: cells. The conditions noted are these: Homo sapiens. In kind it is functional, cell-based.
Experiment [9] deals with Luciferin 4-monooxygenase (Photinus pyralis, UniProt P08659). The experiment in a line: firefly luciferase enzyme inhibitors, dose response, biochemical, luminescence (AID 1891).
The target in experiment [10] is T2, Sentrin-specific protease 8. In kind it is functional. This is another data set of the same source.
Experiment [11] concerns the target Glucose-6-phosphate 1-dehydrogenase (Homo sapiens, UniProt P11413). The experiment in a line: human G6PD enzyme inhibitors, dose response, selectivity assay for P. falciparum G6PD inhibitor project, biochemical, fluorescence (AID 504792). In kind it is functional.
Experiment [12] can be described thus: Luminescence Cell-Based Dose Confirmation HTS to Identify Inhibitors of Platelet Dense Granule Release. [Related pubchem assays: 1663 (Primary HTS), 1678 (Summary of Project)]. In kind it is functional.
For experiment [13], the system named is BJ. The experiment in a line: cytotoxicity toward BJ-TERT-LT-ST fibroblasts, dose response, cell-based, RAS-independent, luminescence (AID 1935).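 Note: BJ fibroblasts immortalized with TERT plus LT and ST oncogenes.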 Particulars: Homo sapiens. In kind it is functional.
Experiment [14] deals with Genome polyprotein (dengue virus type 2, UniProt P29990). The experiment in a line: Dengue-2 NS5 methyltransferase inhibitors, primary screen, biochemical, confirmation dose response (AID 588689). In kind it is functional.
The nature of experiment [15]: cytotoxicity toward DRD oncogenic fibroblasts, dose response, cell-based, non-viral oncogenic, luminescence (AID 1934). In kind it is functional. Particulars: Homo sapiens.
Experiment [16] has as its target Heat shock protein HSP 90-alpha (Homo sapiens, UniProt P07900). In kind it is functional, organism-based.
Experiment [17] deals with T3, Sentrin-specific protease 1 (Homo sapiens, UniProt Q9P0U3).
T3 sequence (Q9P0U3 whole entry): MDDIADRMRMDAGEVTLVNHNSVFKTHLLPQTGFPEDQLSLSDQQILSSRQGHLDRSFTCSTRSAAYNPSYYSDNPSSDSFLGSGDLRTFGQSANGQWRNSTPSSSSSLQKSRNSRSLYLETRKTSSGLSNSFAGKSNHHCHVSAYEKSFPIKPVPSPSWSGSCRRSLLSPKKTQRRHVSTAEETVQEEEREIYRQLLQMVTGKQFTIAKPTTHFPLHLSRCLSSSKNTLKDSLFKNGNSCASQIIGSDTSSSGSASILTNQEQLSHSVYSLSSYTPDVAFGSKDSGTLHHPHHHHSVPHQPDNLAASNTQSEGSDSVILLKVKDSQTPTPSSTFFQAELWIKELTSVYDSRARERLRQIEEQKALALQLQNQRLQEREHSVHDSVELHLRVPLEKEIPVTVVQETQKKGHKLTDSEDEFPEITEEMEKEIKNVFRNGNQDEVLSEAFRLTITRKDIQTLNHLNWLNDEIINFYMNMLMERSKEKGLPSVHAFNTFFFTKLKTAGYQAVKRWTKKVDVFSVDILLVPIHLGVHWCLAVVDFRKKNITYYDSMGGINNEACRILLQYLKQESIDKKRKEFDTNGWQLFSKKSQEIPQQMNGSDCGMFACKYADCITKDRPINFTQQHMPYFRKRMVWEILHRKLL
The experiment in a line: potency of human SENP1 inhibitors, dose response, biochemical, kinetic FRET (AID 651697). The conditions noted are these: read-out: IC50_Mean. In kind it is functional.

In experiment [18] the target is T3, Sentrin-specific protease 1. The experiment in a line: Dose response confirmation of small molecule inhibitors of the catalytic domain of the SUMO protease, SENP1 in a FRET assay. In kind it is functional. Particulars: read-out: IC50_Mean.
A short description of experiment [19]: Counterscreen for IDE inhibitors: Luminescence-based cell-based high throughput dose response assay to identify compounds that are cytotoxic to HEK cells. [Related pubchem assays: 434962 (Primary screen (IDE inhibitors in singlicate)), 449730 (Counterscreen (Cytotoxicity in triplicate)), 435028 (Confirmation (IDE inhibitors in triplicate)) …. The conditions noted are these: HEK293. In kind it is functional.

The target in experiment [20] is T4, Insulin-degrading enzyme (Homo sapiens, UniProt P14735).
T4 sequence (P14735 whole entry): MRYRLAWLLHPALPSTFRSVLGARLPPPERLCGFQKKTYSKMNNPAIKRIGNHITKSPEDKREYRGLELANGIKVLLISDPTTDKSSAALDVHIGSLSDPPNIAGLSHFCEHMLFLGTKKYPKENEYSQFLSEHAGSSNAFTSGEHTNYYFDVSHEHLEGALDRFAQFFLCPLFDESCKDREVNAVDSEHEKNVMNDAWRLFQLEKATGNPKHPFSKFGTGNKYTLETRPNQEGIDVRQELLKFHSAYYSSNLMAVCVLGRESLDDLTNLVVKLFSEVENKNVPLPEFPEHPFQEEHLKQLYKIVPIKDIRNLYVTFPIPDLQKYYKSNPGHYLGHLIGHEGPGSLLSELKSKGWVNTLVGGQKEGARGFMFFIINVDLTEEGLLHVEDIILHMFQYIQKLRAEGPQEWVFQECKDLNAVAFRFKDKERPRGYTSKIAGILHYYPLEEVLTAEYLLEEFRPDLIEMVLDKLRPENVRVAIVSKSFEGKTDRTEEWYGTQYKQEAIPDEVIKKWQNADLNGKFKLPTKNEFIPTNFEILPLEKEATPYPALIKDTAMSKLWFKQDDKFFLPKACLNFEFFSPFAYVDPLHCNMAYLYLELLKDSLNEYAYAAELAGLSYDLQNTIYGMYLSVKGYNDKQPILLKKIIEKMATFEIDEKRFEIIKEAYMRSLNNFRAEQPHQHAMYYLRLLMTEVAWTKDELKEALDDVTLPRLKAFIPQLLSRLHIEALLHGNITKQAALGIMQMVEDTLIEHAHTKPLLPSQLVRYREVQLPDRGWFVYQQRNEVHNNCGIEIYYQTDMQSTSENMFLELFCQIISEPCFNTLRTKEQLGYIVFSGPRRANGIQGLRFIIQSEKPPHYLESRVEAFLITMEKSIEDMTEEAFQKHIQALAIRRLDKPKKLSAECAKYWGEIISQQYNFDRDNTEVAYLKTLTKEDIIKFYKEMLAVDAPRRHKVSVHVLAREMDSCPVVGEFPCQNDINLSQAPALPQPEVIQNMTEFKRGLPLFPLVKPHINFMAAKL
The experiment in a line: Dose Response: Fluorescence polarization-based cell-based high throughput dose response assay for inhibitors of insulin-degrading enzyme (IDE). [Related pubchem assays: 434962 (Primary screen (IDE inhibitors in singlicate)), 449730 (Counterscreen (Cytotoxicity in triplicate)), 435028 (Confirmation (IDE inhibitors in triplicate)), 434984 (Summary …. In kind it is functional.

Active and inactive are the calls of the source.

For orientation: EC50 means the concentration giving half of the maximal effect. What is called CC50 is the concentration at which the toxic effect on the cells reaches its halfway point. As a reminder, the AC50 is the concentration at which the activity in the assay is half-maximal.

T1 sequence (P65502 whole entry): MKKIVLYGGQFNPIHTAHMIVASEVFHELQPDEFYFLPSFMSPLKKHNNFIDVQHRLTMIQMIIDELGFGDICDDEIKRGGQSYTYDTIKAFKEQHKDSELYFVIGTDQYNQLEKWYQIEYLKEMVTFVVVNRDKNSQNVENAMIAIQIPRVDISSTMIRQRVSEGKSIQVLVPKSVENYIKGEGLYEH
Beta-galactosidase, sequence (Q8VNN2 whole entry): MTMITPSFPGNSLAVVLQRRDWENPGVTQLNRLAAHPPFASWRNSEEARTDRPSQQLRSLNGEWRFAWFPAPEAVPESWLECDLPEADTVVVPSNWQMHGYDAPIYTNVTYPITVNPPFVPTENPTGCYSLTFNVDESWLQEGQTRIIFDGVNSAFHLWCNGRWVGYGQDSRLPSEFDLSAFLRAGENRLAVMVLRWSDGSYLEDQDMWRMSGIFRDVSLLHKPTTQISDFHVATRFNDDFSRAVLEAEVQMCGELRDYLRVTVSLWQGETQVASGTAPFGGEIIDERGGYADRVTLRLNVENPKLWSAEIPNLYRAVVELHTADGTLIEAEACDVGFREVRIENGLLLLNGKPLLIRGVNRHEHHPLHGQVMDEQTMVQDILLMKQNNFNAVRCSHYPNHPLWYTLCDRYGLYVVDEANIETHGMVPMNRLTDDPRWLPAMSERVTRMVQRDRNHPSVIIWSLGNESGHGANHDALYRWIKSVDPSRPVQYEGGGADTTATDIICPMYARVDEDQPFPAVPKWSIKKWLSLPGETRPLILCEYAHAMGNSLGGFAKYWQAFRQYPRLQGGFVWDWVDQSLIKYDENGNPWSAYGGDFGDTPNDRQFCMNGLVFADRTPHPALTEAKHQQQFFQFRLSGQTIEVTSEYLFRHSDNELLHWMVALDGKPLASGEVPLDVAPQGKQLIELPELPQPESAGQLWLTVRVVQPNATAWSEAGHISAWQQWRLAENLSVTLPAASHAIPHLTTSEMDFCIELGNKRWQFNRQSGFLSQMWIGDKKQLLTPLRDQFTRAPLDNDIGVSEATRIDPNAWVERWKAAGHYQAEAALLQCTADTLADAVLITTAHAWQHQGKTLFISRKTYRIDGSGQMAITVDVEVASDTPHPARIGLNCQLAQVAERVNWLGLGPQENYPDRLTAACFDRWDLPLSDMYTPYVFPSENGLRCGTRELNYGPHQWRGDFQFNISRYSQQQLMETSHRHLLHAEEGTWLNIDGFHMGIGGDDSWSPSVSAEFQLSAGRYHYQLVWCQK
ADP-ribosylation factor GTPase-activating protein 1, sequence (Q62848 whole entry): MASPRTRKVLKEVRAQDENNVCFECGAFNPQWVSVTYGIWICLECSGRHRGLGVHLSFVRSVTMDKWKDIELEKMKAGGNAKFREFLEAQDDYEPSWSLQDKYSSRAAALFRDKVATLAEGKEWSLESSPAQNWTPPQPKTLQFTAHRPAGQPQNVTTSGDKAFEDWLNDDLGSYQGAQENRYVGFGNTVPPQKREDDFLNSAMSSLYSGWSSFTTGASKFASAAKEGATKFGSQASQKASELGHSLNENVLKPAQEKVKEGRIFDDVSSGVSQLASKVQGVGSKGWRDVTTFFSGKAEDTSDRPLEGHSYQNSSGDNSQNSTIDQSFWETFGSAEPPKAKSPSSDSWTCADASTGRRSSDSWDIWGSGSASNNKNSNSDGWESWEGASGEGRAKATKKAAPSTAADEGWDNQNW
Glucose-6-phosphate 1-dehydrogenase, sequence (P11413 whole entry): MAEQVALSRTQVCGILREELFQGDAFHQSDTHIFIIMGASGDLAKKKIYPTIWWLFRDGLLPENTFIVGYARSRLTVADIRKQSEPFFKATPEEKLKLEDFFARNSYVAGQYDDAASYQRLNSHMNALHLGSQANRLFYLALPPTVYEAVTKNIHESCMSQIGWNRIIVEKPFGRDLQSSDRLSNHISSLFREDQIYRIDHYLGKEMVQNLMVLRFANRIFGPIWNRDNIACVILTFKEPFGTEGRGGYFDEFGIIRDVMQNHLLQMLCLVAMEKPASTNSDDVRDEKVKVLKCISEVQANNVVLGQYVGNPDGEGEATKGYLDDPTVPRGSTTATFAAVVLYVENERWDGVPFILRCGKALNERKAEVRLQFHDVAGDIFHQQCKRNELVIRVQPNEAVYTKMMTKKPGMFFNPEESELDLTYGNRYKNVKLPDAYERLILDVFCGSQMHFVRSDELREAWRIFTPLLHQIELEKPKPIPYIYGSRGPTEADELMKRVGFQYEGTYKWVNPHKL
Luciferin 4-monooxygenase, sequence (P08659 whole entry): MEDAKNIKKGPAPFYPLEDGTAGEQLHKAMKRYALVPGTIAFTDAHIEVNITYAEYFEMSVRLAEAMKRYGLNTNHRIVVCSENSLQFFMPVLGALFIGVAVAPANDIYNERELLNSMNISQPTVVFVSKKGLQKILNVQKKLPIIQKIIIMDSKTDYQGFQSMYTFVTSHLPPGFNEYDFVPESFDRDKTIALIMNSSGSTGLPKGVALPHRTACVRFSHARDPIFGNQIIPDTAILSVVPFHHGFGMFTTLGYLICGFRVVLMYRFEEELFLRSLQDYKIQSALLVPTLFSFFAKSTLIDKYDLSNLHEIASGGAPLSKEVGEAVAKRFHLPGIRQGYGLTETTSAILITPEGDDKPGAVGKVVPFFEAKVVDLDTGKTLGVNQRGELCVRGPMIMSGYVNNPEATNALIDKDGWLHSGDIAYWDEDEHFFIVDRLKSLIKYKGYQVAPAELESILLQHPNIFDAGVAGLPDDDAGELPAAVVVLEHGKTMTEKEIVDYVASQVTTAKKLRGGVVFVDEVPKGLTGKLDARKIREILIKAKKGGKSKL
Genome polyprotein, sequence (P29990 2492-3391 limits assumed): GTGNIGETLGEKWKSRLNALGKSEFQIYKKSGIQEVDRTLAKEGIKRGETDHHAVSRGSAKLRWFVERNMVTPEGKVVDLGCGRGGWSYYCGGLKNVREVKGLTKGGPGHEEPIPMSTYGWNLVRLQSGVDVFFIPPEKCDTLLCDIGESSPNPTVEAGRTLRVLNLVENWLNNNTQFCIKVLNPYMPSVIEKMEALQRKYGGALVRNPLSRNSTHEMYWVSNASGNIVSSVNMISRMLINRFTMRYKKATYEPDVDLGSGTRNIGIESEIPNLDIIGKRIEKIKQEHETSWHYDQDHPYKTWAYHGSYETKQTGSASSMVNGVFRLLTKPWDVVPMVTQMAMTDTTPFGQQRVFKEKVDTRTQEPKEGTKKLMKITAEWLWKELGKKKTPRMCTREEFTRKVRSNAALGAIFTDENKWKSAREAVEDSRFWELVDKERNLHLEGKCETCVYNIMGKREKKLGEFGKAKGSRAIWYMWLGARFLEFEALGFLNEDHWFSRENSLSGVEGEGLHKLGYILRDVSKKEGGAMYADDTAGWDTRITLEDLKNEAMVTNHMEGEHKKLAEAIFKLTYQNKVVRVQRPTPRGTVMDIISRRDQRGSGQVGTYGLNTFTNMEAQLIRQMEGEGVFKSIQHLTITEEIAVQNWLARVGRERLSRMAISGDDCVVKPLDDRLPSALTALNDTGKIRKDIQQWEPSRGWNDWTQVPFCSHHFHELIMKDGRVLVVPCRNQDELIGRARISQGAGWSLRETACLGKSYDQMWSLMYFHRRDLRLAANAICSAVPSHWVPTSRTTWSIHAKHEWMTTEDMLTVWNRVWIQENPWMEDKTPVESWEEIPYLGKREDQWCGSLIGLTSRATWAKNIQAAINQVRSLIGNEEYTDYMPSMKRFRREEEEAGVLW

As to `COc1ccc(OCC(=O)N2CCN(c3nnc(-c4ccc(C)cc4)c4ccccc34)CC2)cc1`, the IC50 in experiment [1] is > 80 µM (inactive).
On to `COc1ccc(OC)c(/C=C/C(=O)OCC(=O)Nc2nnc(-c3ccccc3)o2)c1`, for which the IC50 in experiment [2] was 9.28 µM (active); in [3] it was 42.5 µM (active).
On to `NC(=O)c1ccc(NC(=O)COC(=O)/C=C/c2cn(-c3ccccc3)nc2-c2cccnc2)cc1`, for which the IC50 in experiment [4] is 57.4 µM (inactive).
Turning to `COc1cccc2nc3cc(C)c(C)cc3nc12`, the EC50 in experiment [5] was 3.31 µM (active); in experiment [8], 3.05 µM (active); in experiment [9] it was 0.923 µM (active); in experiment [12] it was 7.02 µM (active); in experiment [13] it was 12.2 µM (inconclusive); in experiment [15] it was 3.01 µM (active). For the same compound, in [6], the cytotoxic concentration (CC50) is 11.7 µM (active). Besides, the IC50 was 8.2 µM (active) in experiment [7], 8.48 µM (active) in [10], 37.1 µM (inactive) in experiment [11] and 62.2 µM (active) in [14].
For `CCOc1ccc(Br)cc1C1=NN(C(C)=O)C(c2ccc([N+](=O)[O-])s2)O1` (stereo unspecified), the AC50 in experiment [16] was 7.83 µM (active). Moreover, the IC50 in [7] was 9.04 µM (active); in [10] it was 11 µM (active).
In the case of `COc1ccc([C@H]2CC(=O)C=C(c3cccc(Cl)c3O)C2)cc1OC`, the IC50 is 8.62 µM (active) in [17] and 4.36 µM (active) in experiment [18].
In the case of `CCOc1cc(Br)cc(/C=C2\SC(Nc3ccccc3)=NC2=O)c1O`, the IC50 in [17] was 5.76 µM (active); in [19], 35.1 µM (not active); in [20], 12.7 µM (not active); in [18] it was 1.18 µM (active).
On to `O=C(/C=C/c1ccc(F)cc1)N1CCN(c2ncccn2)CC1`, for which the IC50 in experiment [1] was > 80 µM (inactive).
Regarding `CCOc1ccc2oc(C(=O)OCC(=O)N3CCCC(C)C3)c(C)c2c1` (stereo unspecified), in experiment [4], the IC50 was 69.8 µM (inactive).

Values taken from ChEMBL document CHEMBL1201862, “PubChem BioAssay data set” (2004).
